Experimental data: PubChem BioAssay AID651703 (Broad Institute, 2012)

Target: Transforming acidic coiled-coil-containing protein 3 (Homo sapiens) (UniProt Q9Y6A5)
Assay: ARNT/TACC3 interaction disruptors, potency, confirmation, biochemical, AlphaScreen, cherry-picked samples (AID 651703);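 further: TACC3 partner is the GST-tagged E629A mutant dimer; hits lower the signal meaning they disrupt ARNT binding to TACC3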
Conditions: AlphaScreen His-ARNT PAS-B / GST-TACC3 binding, luminescence

**Q.** For `COc1ccc(Nc2cc3n(c(=O)n2)CCc2cc(OC)c(OC)cc2-3)cc1`, which AC50 is on record?
**A.** The AC50 was 68.6 µM.

**Q.** How did the AC50 turn out when `Cc1ccc(C(=O)Nc2nc(-c3ccccn3)cs2)cc1S(=O)(=O)N1CCOCC1` was run?
**A.** Its AC50 is 2.37 µM.

**Q.** How did the AC50 turn out when `O=C(N[C@H]1CC[C@@H](CCn2cc(-c3ccccn3)nn2)O[C@H]1CO)c1ccncc1` was run?
**A.** Its AC50 is 9.53 µM.

**Q.** For `O=C(C1CCCC1)N1C[C@@H]2[C@H](c3ccccc31)[C@H](CO)N2C(=O)Cc1ccccn1`, which AC50 is on record?
**A.** Its AC50 is 67.4 µM.

**Q.** With `COc1ccc(NC(=O)N[C@H]2CC[C@@H](CCn3cc(-c4ccccn4)nn3)O[C@H]2CO)cc1` as the compound, how does the AC50 read?
**A.** The AC50 was 17 µM.

**Q.** For `Cc1cccc(C(=O)Nc2nnc(-c3ccncc3)o2)c1`, which AC50 is on record?
**A.** Its AC50 is 36.5 µM.

**Q.** How did the AC50 turn out when `O=C(NCCCn1ccnc1)c1ccc2nccnc2c1` was run?
**A.** The AC50 was 67.5 µM.

**Q.** Which AC50 does the source give for `Cc1ccc(C)c(S(=O)(=O)N2CCN(Cc3ccc(O)c4ncccc34)CC2)c1` here?
**A.** The AC50 was 5.27 µM.

**Q.** Which AC50 does the source give for `O=C(N/N=C/c1c(O)ccc2ccccc12)c1ccc(CO)nc1` here?
**A.** Its AC50 is 10.8 µM.

**Q.** With `CC(C)(C)C1=Nn2c(nnc2-c2ccccn2)SC1` as the compound, how does the AC50 read?
**A.** Its AC50 is 6.44 µM.

**Q.** With `CS(=O)(=O)c1cccc(-c2nnc(NC(=O)c3ccc(S(=O)(=O)N4CCCC4)cc3)o2)c1` as the compound, how does the AC50 read?
**A.** Its AC50 is 22.5 µM.

**Q.** `O=c1cc(N/N=C/c2ccccc2)[nH]c(=O)[nH]1` was tested. Which AC50 did it give?
**A.** Its AC50 is 31.8 µM.

**Q.** For `OCCN(Cc1cccnc1)Cc1ccccn1`, which AC50 is on record?
**A.** The AC50 was 2.28 µM.

**Q.** Which AC50 does the source give for `Cc1cc(C)c(S(=O)(=O)N2CCOC2CNC(=O)C(=O)NCCCn2ccnc2)c(C)c1` (configuration not stated) here?
**A.** Its AC50 is 5.58 µM.

**Q.** For `COc1ccc(NC(=O)Nc2ccc3c(c2)CC(=O)N([C@H](C)CO)C[C@H](C)[C@@H](CN(C)Cc2ccc(Oc4ccccc4)cc2)O3)cc1`, which AC50 is on record?
**A.** Its AC50 is 23.6 µM.

**Q.** `CCCCC(=O)NC(c1ccc(N(C)C)cc1)c1ccc2cccnc2c1O` (configuration not stated) was tested. Which AC50 did it give?
**A.** Its AC50 is 2.63 µM.

**Q.** With `O=C(N[C@@H]1CC[C@H](CCn2cc(-c3ccccn3)nn2)O[C@@H]1CO)c1cccnc1` as the compound, how does the AC50 read?
**A.** Its AC50 is 13.5 µM.

**Q.** `CN(C)C(=O)CSc1cccc2cccnc12` was tested. Which AC50 did it give?
**A.** Its AC50 is 4.27 µM.

**Q.** For `Cc1cccc(NC(=O)CCC(=O)N/N=C/c2ccc(O)cc2O)c1`, which AC50 is on record?
**A.** The AC50 was 22.4 µM.

**Q.** For `O=C(Nc1nnc(-c2ccc(F)cc2)o1)c1ccco1`, which AC50 is on record?
**A.** Its AC50 is 37 µM.

**Q.** How did the AC50 turn out when `Oc1ccccc1C(Nc1nccs1)c1ccc2cccnc2c1O` (configuration not stated) was run?
**A.** Its AC50 is 4.85 µM.

**Q.** With `O=C(CSc1ccc(-c2ccccn2)nn1)NCc1ccccc1` as the compound, how does the AC50 read?
**A.** Its AC50 is 4.18 µM.

**Q.** For `O=S(=O)(N[C@H]1CC[C@@H](CCn2cc(-c3ccccn3)nn2)O[C@@H]1CO)c1cccc(Cl)c1`, which AC50 is on record?
**A.** The AC50 was 16.9 µM.

**Q.** Which AC50 does the source give for `NC1=NN=C(N2N=C(c3ccco3)CC2(O)C(F)(F)F)n2ncnc2C1` (configuration not stated) here?
**A.** The AC50 was 12 µM.

**Q.** With `Cc1cc(C)c(NC(=O)CSc2nnc(-c3ccccn3)n2N)c(Cl)c1` as the compound, how does the AC50 read?
**A.** Its AC50 is 37.1 µM.

**Q.** With `N#Cc1ccc(C(=O)Nc2nnc(-c3ccccn3)o2)cc1` as the compound, how does the AC50 read?
**A.** The AC50 was 22.4 µM.

**Q.** `Oc1c(Cl)cc(CN2CCOCC2)c2cccnc12` was tested. Which AC50 did it give?
**A.** Its AC50 is 1.15 µM.

**Q.** With `Cc1ccc(CNc2nc(-c3ccccn3)nnc2-c2ccccc2)cc1` as the compound, how does the AC50 read?
**A.** Its AC50 is 0.736 µM.

**Q.** For `Cc1c(Cl)cccc1-c1ccc(CNCc2ccccn2)o1`, which AC50 is on record?
**A.** Its AC50 is 35.2 µM.

**Q.** Which AC50 does the source give for `C/C(=N\NC(=O)C1CCCN(S(=O)(=O)c2ccccc2)C1)c1ccccn1` (configuration not stated) here?
**A.** Its AC50 is 11.1 µM.

**Q.** Which AC50 does the source give for `O=C(Nc1nnc(-c2cccs2)o1)c1ccco1` here?
**A.** The AC50 was 48.4 µM.

**Q.** For `Fc1ccc(-c2ccc(CNCc3ccccn3)o2)cc1`, which AC50 is on record?
**A.** The AC50 was 31.2 µM.

**Q.** For `O=c1[nH][nH]c(=O)c2nc(Nc3ccccc3)ncc12`, which AC50 is on record?
**A.** The AC50 was 66.1 µM.

**Q.** With `CCOC(=O)c1cnc(Nc2nc3ccccc3o2)nc1CN1CCN(C)CC1` as the compound, how does the AC50 read?
**A.** Its AC50 is 6.81 µM.

**Q.** `Oc1cccc2c(-c3nn[nH]n3)ccnc12` was tested. Which AC50 did it give?
**A.** The AC50 was 2.14 µM.

**Q.** With `O=C(N[C@H]1CC[C@H](CCn2cc(-c3ccccn3)nn2)O[C@@H]1CO)c1ccccc1` as the compound, how does the AC50 read?
**A.** The AC50 was 13 µM.

**Q.** For `O=C(N[C@H]1CC[C@@H](CCn2cc(-c3ccccn3)nn2)O[C@@H]1CO)c1ccc(F)cc1`, which AC50 is on record?
**A.** The AC50 was 14.8 µM.

**Q.** `O=c1cc(C(F)(F)F)nc(-n2[nH]c3c(c2=O)CCCC3)[nH]1` was tested. Which AC50 did it give?
**A.** The AC50 was 28 µM.

**Q.** `O=C(Nc1nnc(-c2ccncc2)o1)c1ccccc1` was tested. Which AC50 did it give?
**A.** The AC50 was 18.8 µM.

**Q.** For `Oc1c(C(c2ccccn2)N2CCCCC2)cc(Cl)c2cccnc12` (configuration not stated), which AC50 is on record?
**A.** The AC50 was 1.33 µM.

**Q.** For `O=C(Nc1nnc(C2=COCCO2)o1)c1ccc(Cl)cc1`, which AC50 is on record?
**A.** The AC50 was 17.7 µM.

**Q.** `COc1ccccc1C(CCNCc1ccc(N(C)C)cc1)c1ccc(OC(C)C)cc1` (configuration not stated) was tested. Which AC50 did it give?
**A.** The AC50 was 7.83 µM.

**Q.** `CNc1ccc2nc3ccccc3[n+](C)c2c1` was tested. Which AC50 did it give?
**A.** Its AC50 is 29.9 µM.

**Q.** `O=C(Nc1nc(NC(=O)c2ccco2)n(-c2ccccc2)n1)c1ccccc1` was tested. Which AC50 did it give?
**A.** The AC50 was 12.9 µM.

**Q.** `Nc1nc(CN2CCN(Cc3ccccc3)CC2)nc(Nc2ccc3c(c2)OCCO3)n1` was tested. Which AC50 did it give?
**A.** The AC50 was 65.8 µM.

**Q.** For `Cc1ccc(-n2c(-c3ccc(Br)cc3)c[n+]3c2CCc2ccc4cccnc4c2-3)cc1`, which AC50 is on record?
**A.** The AC50 was 1.45 µM.

**Q.** Which AC50 does the source give for `COc1cccc(C(=O)Oc2c(CN3CCOCC3)cc(Cl)c3cccnc23)c1` here?
**A.** The AC50 was 10.9 µM.

**Q.** For `CCN(CC)c1ccc(C(=C2C=CC(=[N+](CC)CC)C=C2)c2ccc(N(CC)CC)cc2)cc1`, which AC50 is on record?
**A.** Its AC50 is 0.734 µM.

**Q.** For `CO[C@@H]1CN(C)C(=O)c2ccc(NC(=O)c3ccccn3)cc2OC[C@@H](C)N(C(=O)C2CC2)C[C@H]1C`, which AC50 is on record?
**A.** Its AC50 is 13.1 µM.

**Q.** For `Cc1ccn2c(Nc3ccccc3C)c(-c3ccccn3)nc2c1`, which AC50 is on record?
**A.** Its AC50 is 3.69 µM.

**Q.** For `CC(=O)NC(c1ccc(Cl)cc1Cl)c1ccc2cccnc2c1O` (configuration not stated), which AC50 is on record?
**A.** The AC50 was 5.14 µM.

**Q.** For `COc1ccc2ccccc2c1CNCc1ccccn1`, which AC50 is on record?
**A.** Its AC50 is 24.8 µM.

**Q.** `c1ccc(-c2nnc(-c3ccccn3)nc2NCCc2ccccn2)cc1` was tested. Which AC50 did it give?
**A.** Its AC50 is < 0.5 µM.

**Q.** With `CCOc1ccc(N(CC(=O)Nc2ccc(OC)cc2OC)S(=O)(=O)c2c(C)[nH]c(=O)[nH]c2=O)cc1` as the compound, how does the AC50 read?
**A.** The AC50 was 27.6 µM.

**Q.** Which AC50 does the source give for `O=C(CSc1n[nH]c(-c2ccccn2)n1)Nc1cccc(Cl)c1` here?
**A.** Its AC50 is 4.78 µM.

**Q.** How did the AC50 turn out when `COc1ccc(NC(=O)N[C@@H]2CC[C@H](CCn3cc(-c4ccccn4)nn3)O[C@@H]2CO)cc1` was run?
**A.** Its AC50 is 21.5 µM.

**Q.** For `O=C(Nc1nnc(C2=COCCO2)o1)c1ccc([N+](=O)[O-])cc1`, which AC50 is on record?
**A.** Its AC50 is 34.3 µM.
